Measured values published in patent US8343509B2, “Methods and compositions for detection of bacteria and treatment of diseases and disorders” (priority 2008, dated 2013).
Like-named read-outs stand apart in the source and are kept apart here.

Tests used:
[1] = tested on: E. coli Nissle; assay: In vivo [124I]-FIAU PET distribution over time in 4T1 xenograft mice
Protocol: Mice bearing 4T1 xenografts were generated as described in Example 2. Prior to intravenous administration of ^[124I]-FIAU, three mice were injected with EcN-bacteria and 3 mice with PBS (control). 37 MBq (1000 μCi) of [^124I]-FIAU was injected into each animal intravenously 72 h after bacterial injection. Potassium iodide was used to block the uptake of radioactive iodine by the thyroid. Imaging of [^124I]-FIAU uptake by PET was obtained 4, 8, 12, 24, 48 and 72 h after tracer administration with 10 minute list acquisition at the 4 h and 8 h imaging time points, 15 minute at the 12 h time point, 30 minute at 24 h time point and 60 minute at the 48 h and 72 h time points. After tracer administration and between imaging time points, the animals were allowed to awake and maintain normal husbandry.

[2] = tested on: E. coli Nissle; conditions: in the absence of bacteria
Source text: Using the data obtained in Example 2 for in vivo [^18F]-FEAU uptake, tumor radioactivity (% ID/g), corrected for background radioactivity, was plotted against the number of bacterial colony forming units per gram for each of the tumors imaged.

[3] = tested on: Escherichia coli Nissle 1917 (EcN); assay: In vitro tracer uptake into E. coli Nissle culture (gamma counter); assay type: cell-based; conditions: 0.925 MBq tracer, culture grown at 37° C. for 4 hours
Protocol: An overnight culture of EcN was diluted 1:50 into 5 ml fresh LB-broth, supplemented with 0.925 MBq (25 μCi) of [^18F]-FDG or [^18F]-FEAU. The cultures were grown at 37° C. for 4 hours. The bacteria were harvested by centrifugation, washed twice with PBS and the radioactivity in the pelleted bacteria and medium was measured in a gamma counter (Packard, United Technologies, Downers Grove, Ill.).

[4] = tested on: E. coli Nissle; assay: [18F]-FEAU uptake by tissue sampling, tumor-to-organ radioactivity ratios; assay type: in vivo, mice; conditions: after EcN administration, p<0.02
Protocol: In vivo uptake of [^18F]-FEAU was measured in a separate experiment by measurement of tumor-to-organ (liver, spleen, heart and lung) [^18F]-FEAU radioactivity ratios via tissue sampling. […] Euthanized mice were rinsed with 100% ethanol prior to tissue removal. Organs, including liver, lung, spleen and heart, were sampled and weighed before radioactivity was measured. Tumor tissue was weighed and homogenized in 1 ml PBS. Serial dilutions of the homogenized sample were plated on L-arabinose containing LB-agar plates. […] The remaining tumor suspension and organ samples were assayed for radioactivity in a gamma counter (Packard, United Technologies, Downers Grove, Ill.). [^18F]-FEAU radioactivity (% ID/g) in the samples was determined and tumor-to-organ ratios calculated. To assess the correlation between radioactivity and scintillation counter measurements, the Pearson correlation coefficient was computed.

[5] = tested on: E. coli Nissle; conditions: for tumor-to-organ ratio, heart / tumor-to-organ ratio, liver / tumor-to-organ ratio, muscle: PET
Protocol: The in vivo uptake of [^18F]-FDG and [^18F]-FEAU by administered EcN bacteria was studied using a mouse tumor model and imaged by positron emission tomography (PET) scanning.
At two weeks post tumor cell implantation (tumor diameter >5 mm), the EcN bacteria (4×10^6 CFU in 100 μl PBS) were administered systemically by lateral tail vein injection into the tumor bearing mice. Control mice were injected with 100 μl PBS via tail vein.
Prior to tracer administration, [^18F]-FDG or [^18F]-FEAU, the animals were starved 12 h and kept under anesthesia between tracer injection and imaging. In the [^18F]-FDG experimental group of mice (n=6 for each time point), each animal was injected intravenously by tail vein with 9.25 MBq (250 μCi) of [^18F]-FDG at either 16 or 72 hours after administration of EcN. Control mice received 9.25 MBq (250 μCi) of [^18F]-FDG following administration of PBS. [^18F]-FDG FDG PET scanning was performed 1 h after tracer administration using a 10 minute list mode acquisition.
In the [^18F]-FEAU experimental group of mice (n=8 for each time point), each animal was injected intravenously by tail vein with 9.25 MBq (250 μCi) of [^18F]-FEAU at either 16 or 72 hours after administration of EcN. Control mice received 9.25 MBq (250 μCi) of [^18F]-FEAU following administration of 100 μl PBS. [^18F]-FDG PET scanning was performed 2 h after tracer administration using a 10 minute list mode acquisition.
Imaging was performed using a Focus 120 microPET™ dedicated small-animal PET scanner (Concorde Microsystems Inc, Knoxyille, Tenn.). Mice were maintained under 2% isofluorane anesthesia with an oxygen flow rate of 2 l/min during the entire scanning period. Three-dimensional (3D) list-mode data were acquired using an energy window of 350-700 keV for ^18F and 410-580 keV for ^124I, respectively and a coincidence timing window of 6 ns. […] Transverse images were reconstructed by filtered back-projection using a ramp filter with a cut-off frequency equal to the Nyquist frequency in a 128×128×94matrix comprised of 0.866×0.866×0.866-mm voxels. The image data were corrected for (a) non-uniformity of scanner response using a uniform cylinder source-based normalization, (b) dead time count losses using a singles count rate-based global correction, (c) physical decay to the time of injection, and (d) the ^124I branching ratio. There was no correction applied for attenuation, scatter or partial-volume averaging. The count rates in the reconstructed images were converted to activity concentration (% of injected dose per gram of tissue, % ID/g) using a system calibration factor (μCi/ml/cps/voxel) derived from imaging of a rat-size phantom filled with a uniform aqueous solution of ^18F.
PET image analysis was performed using ASIPro™ software (Concorde Microsystems Inc., Knoxyille, Tenn.). For each PET scan, regions of interest (ROIs) were manually drawn over tumor, liver, skeletal muscle and heart.

[6] = 4T1 tumors, without/prior to EcN injection
[7] = tracer 16 h after EcN injection
[8] = tracer 72 h after EcN injection

| SMILES | background radioactivity in PET images ([1]; 4 and 8 h acquisition time points) | tumor/background ratios ([1]; 48 and 72 h after tracer, EcN-treated animals) | enrichment in the bacteria-treated tumors versus control tumors ([1]; tracer 72 h after bacterial injection) [fold] | accumulation in 4T1 xenografts [2] | enrichment of radioactivity within EcN-bacteria compared to the remaining LB-broth [3] [fold] | tumor to organ ratio (liver, spleen, heart, lung) by tissue sampling [4] | enhancement of the tracer signal (tumor-to-organ ratios post-EcN vs pre-EcN) ([5]; 16 h after EcN injection) [fold] | enhancement of the tracer signal (tumor-to-organ ratios post-EcN vs pre-EcN) ([5]; 72 h after EcN injection) [fold] | tumor-to-organ ratio, heart [5, 6] | tumor-to-organ ratio, liver [5, 6] | tumor-to-organ ratio, muscle [5, 6] | tumor-to-organ ratio, heart [5, 7] | tumor-to-organ ratio, liver [5, 7] | tumor-to-organ ratio, muscle [5, 7] | tumor-to-organ ratio, heart [5, 8] | tumor-to-organ ratio, liver [5, 8] | tumor-to-organ ratio, muscle [5, 8] | uptake in tumors ([5]; in the absence of EcN injection) |
| --- | --- | --- | --- | --- | --- | --- | --- | --- | --- | --- | --- | --- | --- | --- | --- | --- | --- | --- |
| O=c1[nH]c(=O)n([C@@H]2O[C@H](CO)[C@@H](O)[C@@H]2F)cc1I [[^124I]-FIAU, 5-iodo-2′-fluoro-2′deoxy-1-β-D-arabino-furanosyl-uracil] | very high background radioactivity | greater than 5 | 2.5 | low levels above background | – | – | – | – | – | – | – | – | – | – | – | – | – | – |
| CCc1cn([C@@H]2O[C@H](CO)[C@@H](O)[C@@H]2[18F])c(=O)[nH]c1=O [[^18F]-FEAU, 2′-[^18F]fluoro-2′deoxy-1-β-D-arabinofuranosyl-5-ethyl-uracil] | – | – | – | near background levels | 6.5 | increased significantly | ~1.6 | ~2.1 | 1.4±0.3 | 1.4±0.3 | 1.7±0.4 | 2.1±0.6 | 2.0±0.7 | 2.6±0.8 | 2.9±0.8 | 2.4±0.8 | 3.0±1.3 | much lower than that of [^18F]-FDG |
| OC[C@H]1OC(O)[C@H]([18F])[C@@H](O)[C@@H]1O (stereo partly drawn) [[^18F]-FDG, 2′-[^18F]fluoro-2′deoxy-D-glucose] | – | – | – | – | 120 | – | ~1.7 | ~1.4 | 0.23±0.12 | 1.6±0.4 | 3.3±0.7 | 0.31±0.8 | 2.6±0.5 | 5.4±1.1 | 0.31±0.17 | 2.2±0.8 | 4.3±1.2 | – |
